Source: US11040963B2 (priority 2017, dated 2021)

How the values were obtained:
[1] = test system: H1N1 A/New Caledonia/20/99; test: microbe, parasite or virus in culture; assay type: cell-based, influenza A virus; conditions: Influenza A virus, H1N1, MDCK, 96 h, read-out: Virus neutralization assay (VNA), pEC50 H1N1 A/New Caledonia/20/99 (converted)
[2] = target: HA H5 A/Vietnam/1203/04 (Influenza A virus (A/Vietnam/1203/2004(H5N1)), UniProt Q5EP31); test: biochemical; conditions: Competition binding (AlphaLISA), pIC50 H5 A/Vietnam/1203/04
H1N1 A/California/07/09 = test: microbe, parasite or virus in culture; assay type: cell-based, influenza A virus; conditions: Influenza A virus, H1N1, MDCK, 96 h, read-out: Virus neutralization assay (VNA), pEC50 H1N1 A/California/07/09 (converted)
[3] = target: HA H1 A/New Caledonia/20/99 (Influenza A virus (A/New Caledonia/20/1999(H1N1)), UniProt Q6WG00); test: biochemical; conditions: Competition binding (AlphaLISA), pIC50 H1 A/New Caledonia/20/99
[4] = target: HA H1 A/California/07/09 (Influenza A virus (A/California/07/2009(H1N1)), UniProt C3W5X2); test: biochemical; conditions: Competition binding (AlphaLISA), pIC50 H1 A/California/07/09
H5N1 A/Vietnam/1203/04 = test: microbe, parasite or virus in culture; assay type: cell-based, influenza A virus; conditions: Influenza A virus, H5N1, MDCK, 96 h, read-out: Virus neutralization assay (VNA), pEC50 H5N1 A/Vietnam/1203/04, MDCK cells, 96 h, CPE by ATPlite (converted); average of repeats
in vitro = conditions: dog, Cytotoxicity (pCC50) MDCK

SMILES | EC50 [1] [µM] | IC50 [2] [µM] | EC50 (H1N1 A/California/07/09) [µM] | IC50 [3] [µM] | IC50 [4] [µM] | EC50 (H5N1 A/Vietnam/1203/04) [µM] | CC50 (in vitro) [µM]
COC(=O)C(c1ccccc1)N1CCN(C(=O)c2cccc(-c3nc4ccccc4o3)c2)CC1 (centres unmarked) [Example 31] | 0.158 | 1.26 | 0.316 | 0.0251 | 0.0316 | 7.94 | > 50.1
Cc1nnc([C@@H](c2ccccc2)N2CCN(C(=O)c3cccc(-c4nc5c(C)cccc5o4)c3)CC2)o1 [Example 32] | 0.158 | 3.98 | 0.316 | 0.0794 | 0.0631 | 25.1 | 15.8
COC(=O)[C@@H](c1ccccc1)N1CCN(C(=O)c2cccc(-c3nc4ccccc4s3)c2)CC1 [Example 33] | 0.158 | 0.398 | 0.501 | 0.0316 | 0.0501 | 7.94 | 39.8
O=C(c1cc(-c2nc3cc(C(F)(F)F)ccc3o2)ccn1)N1CCN(C(c2ccccc2)c2nnc(C3CC3)o2)CC1 (centres unmarked) [Example 34] | 0.251 | 1.26 | 0.126 | 0.0631 | 0.0316 | 12.6 | 39.8
Cc1nnc(C(c2ccccc2)N2CCN(C(=O)c3cccc(-c4nc5cc(N(C)C)ccc5o4)c3)CC2)o1 (centres unmarked) [Example 35] | 0.158 | 0.631 | 0.2 | 0.0158 | 0.0158 | 6.31 | 25.1
COc1ccc2oc(-c3cccc(C(=O)N4CCN(C(c5ccccc5)c5nnc(C)o5)CC4)c3)nc2c1 (centres unmarked) [Example 36] | 0.126 | 1 | 0.158 | 0.0251 | 0.0251 | 7.94 | 20
COC(=O)[C@@H](c1ccccc1)N1CCN(C(=O)c2cccc(-c3nc4cc(C(F)(F)F)ccc4o3)c2)[C@H](C)C1 [Example 37] | 0.251 | 1.58 | 0.251 | 0.0501 | 0.0631 | 31.6 | > 50.1
Cc1nnc([C@@H](c2ccccc2)N2CCN(C(=O)c3cccc(-c4ncc5ccccc5n4)c3)CC2)o1 [Example 38] | 0.2 | 2 | 0.316 | 0.0501 | 0.0501 | 7.94 | > 50.1
CNc1ccc2oc(-c3cccc(C(=O)N4CCN(C(c5ccccc5)c5nnc(C)o5)CC4)c3)nc2c1 (centres unmarked) [Example 39] | 0.2 | 1.58 | 0.316 | 0.0316 | 0.0251 | 10 | 15.8
Cc1nnc(C(c2ccccc2)N2CCN(C(=O)c3cc(-c4nc5cc(C(F)(F)F)ccc5o4)ccn3)CC2)o1 (centres unmarked) [Example 40] | 0.251 | 1.26 | 0.158 | 0.0501 | 0.0316 | 10 | 12.6
COC(=O)C(c1ccccc1)N1CCN(C(=O)c2cccc(-c3nc4cc(C(F)(F)F)ccc4o3)c2)CC1 (centres unmarked) [Example 42] | 0.251 | 1 | 0.316 | 0.0398 | 0.0398 | 15.8 | > 50.1
COC(=O)C(c1ccccc1)N1CCN(C(=O)c2cccc(-c3nc4ccncc4o3)c2)CC1 (centres unmarked) [Example 43] | 0.251 | 1.26 | 0.398 | 0.0251 | 0.0316 | 10 | > 50.1
Cc1nnc(C(c2ccccc2)N2CCN(C(=O)c3cccc(-c4nc5cc(O)ccc5o4)c3)CC2)o1 (centres unmarked) [Example 44] | 0.316 | 1.58 | 0.398 | 0.0501 | 0.0501 | 12.6 | 39.8
Cc1nnc([C@@H](c2ccccc2)N2CCN(C(=O)c3cc(-c4nc5cc(C(F)(F)F)ccc5o4)ccc3F)CC2)o1 [Example 45] | 0.316 | 7.94 | 0.251 | 0.1 | 0.0631 | 50.1 | > 50.1
